# Test results taken from patent US20260028326A1, “COMPOUND BASED ON ISOINDOLINE-SUBSTITUTED GLUTARIMIDE BACKBONE AND USE THEREOF” (GLUETACS THERAPEUTICS (SHANGHAI) CO., LTD., priority 2022, published 2026).
# What was measured:
# IKZF1 protein = IKZF1 protein (Homo sapiens (Human), UniProt Q13422+Q96SW2); test: Western-blot assay of substrate protein degradation in hPBMC, IKZF1; assay type: cell-based; details: hPBMC cells, compound 500 nM, 24 hours, Western blot
# Procedure: (§1) After treating the cells with the compounds for 24 hours, the cells were collected and lysed using RIPA protein lysate containing phosphatase inhibitors. The lysate was then placed on ice for 30-60 minutes and centrifuged. The supernatant was aspirated as the extracted total cell protein. The protein concentration of the supernatant was determined using the conventional BCA (Bicinchoninic Acid) assay. The supernatant was then mixed with 4×SDS sample loading buffer, denatured at 95° C. for 5 minutes, and then subjected to SDS-PAGE electrophoresis on a polyacrylamide gel, followed by transfer to a nitrocellulose membrane (NC membrane). The membrane was blocked with blocking buffer at room temperature for 1-2 hours, and then antibody incubation and detection were carried out according to the antibody instructions provided by Cell Signaling Technology.
# (§2) Half-Maximal Degradation Concentration value (the drug concentration required for degrading proteins by 50%, abbreviated as DC50) reads method: comparing the gray values of the Western blotting bands for the drug treatment with the gray values of the Western blotting band for the DMSO control, and reading the drug concentration range corresponding to the gray value of the Western blotting bands for the drug treatment which is equal to half of the gray value of the Western blotting band for the DMSO control.
# (§3) DC50 value could also be calculated as follows: using software ImageJ to quantify the gray values of the Western blotting bands for the drug treatment, fitting the relationship curve between drug concentrations and gray values, and from the fitted curve, calculating the drug concentration corresponding to half of the gray value of the Western blotting band for the DMSO control.
# [1] = target: human Cereblon WT GST-tagged protein (Homo sapiens (Human), UniProt Q96SW2); test: CRBN-binding affinity, HTRF (CEREBLON BINDING kit)
# human Cereblon WT GST-tagged protein, sequence (Q96SW2 whole entry): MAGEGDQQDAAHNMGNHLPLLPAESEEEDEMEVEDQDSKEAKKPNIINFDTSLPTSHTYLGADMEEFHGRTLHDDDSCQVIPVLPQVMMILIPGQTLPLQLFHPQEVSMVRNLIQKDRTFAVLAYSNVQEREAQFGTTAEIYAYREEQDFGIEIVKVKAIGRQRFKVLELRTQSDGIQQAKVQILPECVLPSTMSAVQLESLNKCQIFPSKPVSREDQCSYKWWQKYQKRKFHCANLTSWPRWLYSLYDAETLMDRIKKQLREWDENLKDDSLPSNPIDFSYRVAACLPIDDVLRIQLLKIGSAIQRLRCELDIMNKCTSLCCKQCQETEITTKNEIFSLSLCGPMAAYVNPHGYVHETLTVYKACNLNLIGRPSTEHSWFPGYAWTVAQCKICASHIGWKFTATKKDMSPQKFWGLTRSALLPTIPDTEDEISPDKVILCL
# Procedure, shortened: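 GST-tagged human WT Cereblon incubated with compound, then Thalidomide-Re tracer and anti-GST Eu antibody added. Displacement read by HTRF, reported as CRBN binding inhibition rate against blank control wells without protein.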
# GSPT1 protein = GSPT1 protein (Homo sapiens (Human), UniProt P15170+Q96SW2); test: Western-blot assay of substrate protein degradation in hPBMC, GSPT1; assay type: cell-based; details: hPBMC cells, compound 500 nM, 24 hours, Western blot
# GSPT1 protein, sequence (P15170 whole entry): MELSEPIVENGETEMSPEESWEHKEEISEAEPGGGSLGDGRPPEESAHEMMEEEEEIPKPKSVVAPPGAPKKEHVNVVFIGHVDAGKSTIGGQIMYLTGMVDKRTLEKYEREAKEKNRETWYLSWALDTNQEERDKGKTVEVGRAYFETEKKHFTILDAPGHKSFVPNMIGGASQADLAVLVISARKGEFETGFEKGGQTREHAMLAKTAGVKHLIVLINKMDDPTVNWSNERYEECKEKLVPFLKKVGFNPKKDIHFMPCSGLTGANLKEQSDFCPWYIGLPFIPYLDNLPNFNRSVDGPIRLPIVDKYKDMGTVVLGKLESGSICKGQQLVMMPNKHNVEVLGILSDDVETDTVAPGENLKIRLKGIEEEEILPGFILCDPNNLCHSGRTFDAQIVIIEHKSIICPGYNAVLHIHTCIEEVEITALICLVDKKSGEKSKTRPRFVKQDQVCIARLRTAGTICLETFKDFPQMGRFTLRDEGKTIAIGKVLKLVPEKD
# GSPT1 protein, sequence (Q96SW2 whole entry): as the sequence (Q96SW2 whole entry) above
# GSPT1 protein, sequence (Q16531 whole entry partner): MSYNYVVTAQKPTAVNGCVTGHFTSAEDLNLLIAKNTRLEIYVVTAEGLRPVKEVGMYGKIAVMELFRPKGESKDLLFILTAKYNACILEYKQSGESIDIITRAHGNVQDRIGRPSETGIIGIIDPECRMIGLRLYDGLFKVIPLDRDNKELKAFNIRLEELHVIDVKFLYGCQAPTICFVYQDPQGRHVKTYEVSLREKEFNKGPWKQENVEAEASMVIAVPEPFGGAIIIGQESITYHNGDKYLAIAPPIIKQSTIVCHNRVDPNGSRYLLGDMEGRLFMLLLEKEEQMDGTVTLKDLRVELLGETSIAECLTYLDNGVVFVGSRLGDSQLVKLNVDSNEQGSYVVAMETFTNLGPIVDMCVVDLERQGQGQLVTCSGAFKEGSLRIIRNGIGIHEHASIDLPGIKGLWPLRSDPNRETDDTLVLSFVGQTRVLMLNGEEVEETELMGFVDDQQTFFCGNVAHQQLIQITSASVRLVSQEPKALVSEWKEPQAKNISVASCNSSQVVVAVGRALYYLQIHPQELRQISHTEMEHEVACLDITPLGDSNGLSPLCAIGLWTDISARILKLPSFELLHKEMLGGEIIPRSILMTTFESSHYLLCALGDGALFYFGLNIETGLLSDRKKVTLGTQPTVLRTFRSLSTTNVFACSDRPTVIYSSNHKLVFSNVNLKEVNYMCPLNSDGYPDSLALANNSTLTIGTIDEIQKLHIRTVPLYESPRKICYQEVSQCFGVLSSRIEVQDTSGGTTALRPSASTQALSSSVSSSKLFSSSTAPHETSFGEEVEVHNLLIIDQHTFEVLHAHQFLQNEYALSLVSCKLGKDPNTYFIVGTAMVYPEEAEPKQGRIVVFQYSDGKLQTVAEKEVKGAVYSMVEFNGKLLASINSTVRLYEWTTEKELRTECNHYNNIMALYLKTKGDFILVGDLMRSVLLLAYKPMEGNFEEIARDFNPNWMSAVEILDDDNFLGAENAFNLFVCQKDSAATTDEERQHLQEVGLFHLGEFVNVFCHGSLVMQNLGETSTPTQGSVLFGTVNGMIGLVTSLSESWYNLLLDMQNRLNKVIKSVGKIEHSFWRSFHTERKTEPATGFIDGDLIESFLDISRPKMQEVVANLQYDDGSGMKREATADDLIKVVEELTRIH
# Procedure: as §1, §2, §3
# IKZF3 protein = IKZF3 protein (Homo sapiens (Human), UniProt Q96SW2+Q9UKT9); test: Western-blot assay of substrate protein degradation in hPBMC, IKZF3; assay type: cell-based; details: hPBMC cells, compound 500 nM, 24 hours, Western blot
# IKZF3 protein, sequence (Q9UKT9 whole entry): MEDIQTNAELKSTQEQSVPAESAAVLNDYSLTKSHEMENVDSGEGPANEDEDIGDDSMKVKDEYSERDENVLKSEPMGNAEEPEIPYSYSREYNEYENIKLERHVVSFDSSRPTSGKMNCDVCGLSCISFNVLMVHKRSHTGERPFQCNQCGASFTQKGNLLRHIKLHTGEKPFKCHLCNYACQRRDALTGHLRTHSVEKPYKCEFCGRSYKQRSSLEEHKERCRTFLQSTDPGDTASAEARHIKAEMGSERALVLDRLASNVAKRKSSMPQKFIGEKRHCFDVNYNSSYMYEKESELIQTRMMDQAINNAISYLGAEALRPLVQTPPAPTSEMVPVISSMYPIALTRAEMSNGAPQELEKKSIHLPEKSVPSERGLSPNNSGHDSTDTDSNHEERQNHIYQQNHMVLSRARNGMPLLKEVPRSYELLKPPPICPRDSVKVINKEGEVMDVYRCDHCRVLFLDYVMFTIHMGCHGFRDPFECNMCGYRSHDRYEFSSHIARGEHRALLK
# IKZF3 protein, sequence (Q96SW2 whole entry): as the sequence (Q96SW2 whole entry) above
# IKZF3 protein, sequence (Q16531 whole entry partner): as the sequence (Q16531 whole entry partner) above
# Procedure: as §1, §2, §3
# IKZF1 protein, sequence (Q13422 whole entry): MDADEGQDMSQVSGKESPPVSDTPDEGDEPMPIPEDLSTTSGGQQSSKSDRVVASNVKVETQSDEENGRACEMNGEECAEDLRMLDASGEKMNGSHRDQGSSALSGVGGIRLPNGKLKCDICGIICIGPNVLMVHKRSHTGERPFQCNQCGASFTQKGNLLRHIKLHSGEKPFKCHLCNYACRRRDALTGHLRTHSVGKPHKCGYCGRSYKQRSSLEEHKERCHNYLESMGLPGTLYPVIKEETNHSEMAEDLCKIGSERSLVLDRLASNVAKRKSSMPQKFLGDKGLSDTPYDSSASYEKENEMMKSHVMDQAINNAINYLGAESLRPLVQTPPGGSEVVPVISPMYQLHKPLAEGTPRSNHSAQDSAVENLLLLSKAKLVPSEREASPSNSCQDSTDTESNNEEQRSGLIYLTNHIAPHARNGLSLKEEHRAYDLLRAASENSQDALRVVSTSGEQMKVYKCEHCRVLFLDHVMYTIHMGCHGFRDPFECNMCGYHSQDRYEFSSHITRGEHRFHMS
# IKZF1 protein, sequence (Q96SW2 whole entry): as the sequence (Q96SW2 whole entry) above
# IKZF1 protein, sequence (Q16531 whole entry partner): as the sequence (Q16531 whole entry partner) above
IC50 [1] [nM],Compound,"residual substrate protein level, IKZF1 (IKZF1 protein)","residual substrate protein level, GSPT1 (GSPT1 protein)","residual substrate protein level, IKZF3 (IKZF3 protein)"
210,"O=C1CCC(N2Cc3cc(CN4CCN(Cc5cccc(-c6ccc[nH]6)c5)CC4)ccc3C2=O)C(=O)N1 (stereo not shown) [GT-05733, 3-(5-((4-(3-(1H-pyrrol-2-yl)benzyl)piperazin-1-yl)methyl)-1-oxoisoindolin-2-yl)piperidine-2,6-dione]",B (B represents a residual substrate protein level of >50%),A (A represents a residual substrate protein level of <50%),A (A represents a residual substrate protein level of <50%)
430,"CC1(C)CCC(C(=O)N2CC3CCC2CN3Cc2ccc3c(c2)CN(C2CCC(=O)NC2=O)C3=O)=C(c2ccc(F)cc2)C1 (stereo not shown) [GT-05402, 3-(5-((5-(4′-fluoro-5,5-dimethyl-3,4,5,6-tetrahydro-[1,1′-biphenyl]-2-carbonyl)-2,5-diazabicyclo[2.2.2]octan-2-yl)methyl)-1-oxoisoindolin-2-yl)piperidine-2,6-dione]",B (B represents a residual substrate protein level of >50%),B (B represents a residual substrate protein level of >50%),A (A represents a residual substrate protein level of <50%)
490,"CC1(C)CCC(C(=O)N2CCC3(CC2)CN(Cc2ccc4c(c2)CN(C2CCC(=O)NC2=O)C4=O)C3)=C(c2ccc(F)cc2)C1 (stereo not shown) [GT-05404, 3-(5-((7-(4′-fluoro-5,5-dimethyl-3,4,5,6-tetrahydro-[1,1′-biphenyl]-2-carbonyl)-2,7-diazaspiro[3.5]nonan-2-yl)methyl)-1-oxoisoindolin-2-yl)piperidine-2,6-dione]",B (B represents a residual substrate protein level of >50%),B (B represents a residual substrate protein level of >50%),A (A represents a residual substrate protein level of <50%)
200,"CC1(C)CCC(CN2CCN(Cc3ccc4c(c3)CN(C3CCC(=O)NC3=O)C4=O)C(C(F)(F)F)C2)=C(c2ccc(Cl)cc2)C1 (stereo not shown) [GT-05796, 3-(5-((4-((4′-chloro-5,5-dimethyl-3,4,5,6-tetrahydro-[1,1′-biphenyl]-2-yl)methyl)-2-(trifluoromethyl)piperazin-1-yl)methyl)-1-oxoisoindolin-2-yl)piperidine-2,6-dione]",B (B represents a residual substrate protein level of >50%),A (A represents a residual substrate protein level of <50%),B (B represents a residual substrate protein level of >50%)
550,"CC1(C)CCC(CN2CC3CCC2CN3Cc2ccc3c(c2F)CN(C2CCC(=O)NC2=O)C3=O)=C(c2ccc(Cl)cc2)C1 (stereo not shown) [GT-04168, 3-(5-((5-((4′-chloro-5,5-dimethyl-3,4,5,6-tetrahydro-[1,1′-biphenyl]-2-yl)methyl)-2,5-diazabicyclo[2.2.2]octan-2-yl)methyl)-4-fluoro-1-oxoisoindolin-2-yl)piperidine-2,6-dione]",B (B represents a residual substrate protein level of >50%),A (A represents a residual substrate protein level of <50%),B (B represents a residual substrate protein level of >50%)
710,"CC1(C)CCC(C(=O)N2CC3CCC2CN3Cc2ccc3c(c2)CN(C2CCC(=O)NC2=O)C3=O)=C(c2ccc(Cl)cc2)C1 (stereo not shown) [GT-05662, 3-(5-((5-(4′-chloro-5,5-dimethyl-3,4,5,6-tetrahydro-[1,1′-biphenyl]-2-carbonyl)-2,5-diazabicyclo[2.2.2]octan-2-yl)methyl)-1-oxoisoindolin-2-yl)piperidine-2,6-dione]",B (B represents a residual substrate protein level of >50%),B (B represents a residual substrate protein level of >50%),A (A represents a residual substrate protein level of <50%)
770,"CC1(C)CCC(CN2C[C@@H]3C[C@H]2CN3Cc2ccc3c(c2)CN(C2CCC(=O)NC2=O)C3=O)=C(c2ccc(Cl)cc2)C1 (stereo partly drawn) [GT-03997, 3-(5-(((1S,4S)-5-((4′-chloro-5,5-dimethyl-3,4,5,6-tetrahydro-[1,1′-biphenyl]-2-yl)methyl)-2,5-diazabicyclo[2.2.1]heptan-2-yl)methyl)-1-oxoisoindolin-2-yl)piperidine-2,6-dione]",A (A represents a residual substrate protein level of <50%),B (B represents a residual substrate protein level of >50%),A (A represents a residual substrate protein level of <50%)
580,"CC1(C)CCC(C(=O)N2CC(O)(C(O)c3ccc4c(c3)CN(C3CCC(=O)NC3=O)C4=O)C2)=C(c2ccc(F)cc2)C1 (stereo not shown) [GT-05490, 3-(5-((1-(4′-fluoro-5,5-dimethyl-3,4,5,6-tetrahydro-[1,1′-biphenyl]-2-carbonyl)-3-hydroxyazetidin-3-yl)(hydroxy)methyl)-1-oxoisoindolin-2-yl)piperidine-2,6-dione]",A (A represents a residual substrate protein level of <50%),B (B represents a residual substrate protein level of >50%),B (B represents a residual substrate protein level of >50%)
740,"CC1(C)CCC(C(=O)N2CC3CN(Cc4ccc5c(c4)CN(C4CCC(=O)NC4=O)C5=O)CC3C2)=C(c2ccc(Cl)cc2)C1 (stereo not shown) [GT-05658, 3-(5-((5-(4′-chloro-5,5-dimethyl-3,4,5,6-tetrahydro-[1,1′-biphenyl]-2-carbonyl)hexahydropyrrolo[3,4-c]pyrrol-2(1H)-yl)methyl)-1-oxoisoindolin-2-yl)piperidine-2,6-dione]",B (B represents a residual substrate protein level of >50%),B (B represents a residual substrate protein level of >50%),A (A represents a residual substrate protein level of <50%)
910,"O=C1CCC(N2Cc3cc(C(=O)N4CC5CCC4CN5Cc4ccccc4-c4ccc(Cl)cc4)ccc3C2=O)C(=O)N1 (stereo not shown) [GT-05622, 3-(5-(5-((4′-chloro-[1,1′-biphenyl]-2-yl)methyl)-2,5-diazabicyclo[2.2.2]octane-2-carbonyl)-1-oxoisoindolin-2-yl)piperidine-2,6-dione]",B (B represents a residual substrate protein level of >50%),A (A represents a residual substrate protein level of <50%),B (B represents a residual substrate protein level of >50%)
730,"CC1(C)CCC(C(=O)N2CC(=Cc3ccc4c(c3)CN(C3CCC(=O)NC3=O)C4=O)C2)=C(c2ccc(Cl)cc2)C1 (stereo not shown) [GT-05420, 3-(5-((1-(4′-chloro-5,5-dimethyl-3,4,5,6-tetrahydro-[1,1′-biphenyl]-2-carbonyl)azetidin-3-ylidene)methyl)-1-oxoisoindolin-2-yl)piperidine-2,6-dione]",B (B represents a residual substrate protein level of >50%),A (A represents a residual substrate protein level of <50%),B (B represents a residual substrate protein level of >50%)

Compound,IC50 [1] [nM],"residual substrate protein level, IKZF1 (IKZF1 protein)","residual substrate protein level, GSPT1 (GSPT1 protein)","residual substrate protein level, IKZF3 (IKZF3 protein)"
"CC1(C)CCC(CN2CC3CC(C2)N3Cc2ccc3c(c2)C(=O)N(C2CCC(=O)NC2=O)C3=O)=C(c2ccc(Cl)cc2)C1 (stereo not shown) [GT-05368, 5-((3-((4′-chloro-5,5-dimethyl-3,4,5,6-tetrahydro-[1,1′-biphenyl]-2-yl)methyl)-3,6-diazabicyclo[3.1.1]heptan-6-yl)methyl)-2-(2,6-dioxopiperidin-3-yl)isoindoline-1,3-dione]",1800,B (B represents a residual substrate protein level of >50%),A (A represents a residual substrate protein level of <50%),A (A represents a residual substrate protein level of <50%)
"CC1(C)CCC(CN2CC3CCC(C2)N3Cc2ccc3c(c2)CN(C2CCC(=O)NC2=O)C3=O)=C(c2ccc(F)cc2)C1 (stereo not shown) [GT-05400, 3-(5-((3-((4′-fluoro-5,5-dimethyl-3,4,5,6-tetrahydro-[1,1′-biphenyl]-2-yl)methyl)-3,8-diazabicyclo[3.2.1]octan-8-yl)methyl)-1-oxoisoindolin-2-yl)piperidine-2,6-dione]",840,B (B represents a residual substrate protein level of >50%),A (A represents a residual substrate protein level of <50%),B (B represents a residual substrate protein level of >50%)
